According to patent publication US20260200849A1, “CATIONIC LIPIDS AND PREPARATION METHOD THEREOF” (RiboX Therapeutics HK Limited, priority 2024, published 2026):

Experiments:
C57BL/6J mice = assay: In vivo expression by IV, 1.0 mg/kg luciferase RNA-LNPs, whole-body and organ IVIS luminescence; settings: Formulation No. 001, RNA No. 331; male C57BL/6J mice, 1.0 mg*kg−1 intravenous, 24-hours post injection
Method in brief: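 Male C57BL/6J mice, 6-8 weeks old (N=3), received 1.0 mg*kg−1 firefly-luciferase RNA-LNPs IV. At 24 h post-dose, luciferin (15 mg/ml) was given IP, and whole-body, liver, spleen, kidney, small and large intestine luminescence was imaged by IVIS.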

[1] = RNA encapsulation efficacy (EE %) by Quant-IT Ribogreen kit; format: physicochemical; settings: LNP, Formulation No. 001, RNA No. 331
Procedure: (§1) The LNP size and polydispersity index (PDI), determined by dynamic light scattering (DLS), and zeta potential were measured by a Zetasizer machine (Malvern). RNA concentration and encapsulation efficacy (EE %) were analyzed by the Quant-IT Ribogreen kit by calculating the percentage encapsulation at 100%—(RNA-LNPs/RNA-LNPs with Triton X-100).

Hep G2 cells [2] = assay: In vitro toxicity: Hep G2 cell viability by CellTiter-Glo; format: cell-based; settings: Formulation No. 001, RNA No. 331, 1 μg/mL RNA-LNPs, 72 hours post transfection, cell only = 100%
Procedure: 2E5 Hep G2 cells were transfected with 1 μg/mL RNA-LNPs. At 72 hours post transfection, cell viability (2-well repeat) was determined with the CellTiter-Glo® reagent kit, according to the kit protocol, measured by a luminometer. Cell only as control (100%).
The cell viability was calculated according to the following formula: […]

[3] = LNP size and polydispersity index (PDI) by dynamic light scattering (Zetasizer); format: physicochemical; settings: for Size (nm): Formulation No. 001 (Ionizable lipid:DSPC:cholesterol:DMG-PEG2000 = 50:10:38.5:1.5, N/P 6), RNA No. 331; for PDI: Formulation No. 001, RNA No. 331
Procedure: as §1

IL-6 = assay: In vivo tolerability by IV: serum IL-6 by Luminex; parameters: species or system C57BL/6J mice; settings: Formulation No. 001, RNA No. 331, male C57BL/6J mice, 1.0 mg*kg/1 intravenous; for IL-6 at 2 h: 2 hours post injection; for IL-6 at 24 h: 24 hours post injection
Method in brief: (§2)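 Male C57BL/6J mice aged 6-8 weeks (N=3) received 1.0 mg*kg−1 firefly-luciferase RNA-LNPs intravenously, with PBS as negative control. Serum taken at 2 and 24 h post-injection was assayed for MCP-1 and IL-6 by Luminex.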

MCP-1 = assay: In vivo tolerability by IV: serum MCP-1 by Luminex; parameters: species or system C57BL/6J mice; settings: Formulation No. 001, RNA No. 331, male C57BL/6J mice, 1.0 mg*kg/1 intravenous; for MCP-1 at 2 h: 2 hours post injection; for MCP-1 at 24 h: 24 hours post injection
Method in brief: as §2

Balb/c mice = assay: In vivo expression by IV, 0.05 mg/kg luciferase RNA-LNPs, IVIS luminescence; settings: Formulation No. 001, RNA No. 331; female Balb/c mice, 0.05 mg*kg−1 intravenous, 24-hours post injection
Method in brief: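 IVIS bioluminescence was read after IP luciferin (15 mg/ml): whole-body at 24 and 72 h, or whole-body/liver/spleen at 24 h. Dosing was a single IV injection of 0.05 mg*kg−1 RNA-LNPs encoding firefly luciferase into 7-8 week old female Balb/c mice, N=3.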

Hep G2 cells [4] = assay: In vitro expression: luciferase activity in Hep G2 cells transfected with RNA-LNPs; format: cell-based; settings: Formulation No. 001, RNA No. 331 (firefly-luciferase), 100 ng/mL RNA-LNPs, 72 hours post transfection
Procedure: 2E5 Hep G2 cells were transfected with 100 ng/mL of RNA-LNPs encoding for firefly-luciferase. At 72 hours post transfection, the cells were washed and lysed. The luciferase expression (2-well repeat) was determined in the cell lysates with the luciferase assay reagent kit (Promega), according to the kit protocol, luciferase activity was measured by a luminometer.

Row | Structure (SMILES) | EE (%) [1] [%] | Size (nm) [3] [nm] | PDI [3] | Kidney (p/s) (C57BL/6J mice) | Large intestine (p/s) (C57BL/6J mice) | Liver (p/s) (C57BL/6J mice) | Small intestine (p/s) (C57BL/6J mice) | Spleen (p/s) (C57BL/6J mice) | Whole body (p/s) (C57BL/6J mice) | In vitro cell viability (%) (Mean) (Hep G2 cells [2]) | IL-6 at 2 h (IL-6) [pg/mL] | IL-6 at 24 h (IL-6) [pg/mL] | MCP-1 at 2 h (MCP-1) [pg/mL] | MCP-1 at 24 h (MCP-1) [pg/mL] | Liver (p/s) (Mean) (Balb/c mice) | Spleen (p/s) (Mean) (Balb/c mice) | Whole body (p/s) (Mean) (Balb/c mice) | In vitro Expression (Mean) (Hep G2 cells [4])
1 | CCCCC/C=C\C/C=C\CCCCCCCCOC(=O)NC(COC(=O)NCCNC)C(=O)OCCCCCC(=O)OCC(CCCCCCCC)CCCCCCCCCC (stereo not drawn) [Lipid 907] | 98.30 | 83.82 | 0.02 | 5.43E+06 | 3.94E+07 | 1.91E+08 | 3.03E+08 | 5.98E+07 | 8.99E+08 | 97.33 | 14 | 2.35 | 1020 | 81.5 | 1.46E+08 | 3.43E+07 | 1.18E+09 | 2.56E+04
2 | CCCCC/C=C\C/C=C\CCCCCCCCOC(=O)C(COC(=O)NCCN1CCCCC1)NC(=O)OCCCCCCCCOC(=O)C(CCCCCC)CCCCCCCC (stereo not drawn) [Lipid 918] | 93.47 | 69.23 | 0.01 | 1.99E+07 | 8.43E+07 | 4.67E+09 | 6.30E+08 | 3.95E+08 | 5.08E+09 | 85.92 | 9.3 | 4.73 | 880 | 300 | 4.14E+08 | 7.74E+07 | 1.21E+09 | 1.25E+06
3 | CCCCC/C=C\C/C=C\CCCCCCCCOC(=O)C(COC(=O)NCCN1CCCCCC1)NC(=O)OCCCCCCCCOC(=O)C(CCCCCC)CCCCCCCC (stereo not drawn) [Lipid 919] | 96.20 | 66.17 | 0.02 | 1.88E+07 | 1.29E+08 | 3.54E+09 | 6.16E+08 | 6.74E+08 | 6.01E+09 | 82.59 | 25.8 | 5.07 | 1290 | 256 | 5.47E+08 | 2.28E+08 | 1.86E+09 | 4.10E+05

Now from value to compound, other results behind:

Row | EE (%) [1] [%] | Size (nm) [3] [nm] | PDI [3] | Structure (SMILES) | Kidney (p/s) (C57BL/6J mice) | Large intestine (p/s) (C57BL/6J mice) | Liver (p/s) (C57BL/6J mice) | Small intestine (p/s) (C57BL/6J mice) | Spleen (p/s) (C57BL/6J mice) | Whole body (p/s) (C57BL/6J mice) | In vitro cell viability (%) (Mean) (Hep G2 cells [2]) | IL-6 at 2 h (IL-6) [pg/mL] | IL-6 at 24 h (IL-6) [pg/mL] | MCP-1 at 2 h (MCP-1) [pg/mL] | MCP-1 at 24 h (MCP-1) [pg/mL] | Liver (p/s) (Mean) (Balb/c mice) | Spleen (p/s) (Mean) (Balb/c mice) | Whole body (p/s) (Mean) (Balb/c mice) | In vitro Expression (Mean) (Hep G2 cells [4])
4 | 87.49 | 70.33 | 0.04 | CCCCCCCCCCCOC(=O)NC(COC(=O)NCCN1CCCCC1)C(=O)OCCCCCCCC(=O)OC(CCCCCCCC)CCCCCCCC (stereo not drawn) [Lipid 914] | 1.72E+07 | 4.60E+07 | 1.75E+09 | 4.42E+08 | 2.11E+08 | 2.46E+09 | 79.98 | 4.6 | 2.77 | 452 | 148 | 3.77E+08 | 5.60E+07 | 1.19E+09 | 1.56E+06
5 | 88.91 | 81.29 | 0.03 | CCCCCCCCCCCOC(=O)CCCCCOC(=O)C(COC(=O)NCCN1CCCCC1)NC(=O)OCCCCCCCCOC(=O)C(CCCCCC)CCCCCCCC (stereo not drawn) [Lipid 923] | 5.13E+06 | 5.94E+07 | 1.44E+09 | 3.01E+08 | 3.85E+08 | 2.42E+09 | 88.59 | 11.9 | 2.37 | 639 | 75 | 4.09E+08 | 5.03E+07 | 1.57E+09 | 7.34E+05
6 | 87.36 | 75.43 | 0.01 | CCCCCCCCC(CCCCCC)C(=O)OCCCCCCCCOC(=O)NC(COC(=O)NCCN1CCCCC1)C(=O)OCCCCCCCCCCC(=O)OCCCCCC (stereo not drawn) [Lipid 928] | 8.93E+06 | 2.23E+07 | 2.41E+09 | 1.61E+08 | 3.25E+08 | 2.17E+09 | 95.03 | 11.9 | 30.5 | 574 | 74.9 | 2.35E+08 | 4.80E+07 | 9.65E+08 | 4.72E+05
